Measurements reported in patent US8168631B2, “3-(4-fluorophenyl)-3-hydroxy-2-amino-propionic acid amides and related compounds having analgesic activity” (Allergan, Inc., priority 2008, dated 2012).
Where a name gives a salt, the structure may show the parent alone.

Tested on: nerve-ligation induced pain (rat model of spinal nerve ligation, SNL)
Assay: Neuropathic pain model (Chung model): rat spinal nerve ligation, mechanical allodynia by Von Frey hairs
Assay type: in vivo
Conditions: for reversed pain in the Chung model: 1 mg/kg, time not given
Description: [drawing 23] and all racemic mixtures of the two optical isomers are also included. Analgesic Activity in the Neuropathic Pain Model (the Chung Model)
Several of the compounds disclosed herein were tested in the rat model of spinal nerve ligation (SNL) which involves a traumatic partial nerve injury, involving tight ligation of the L5 and L6 spinal nerves (Kim and Chung, 1992). Pain, including mechanical allodynia and thermal hyperalgesia, persists in the absence of ongoing tissue injury for more than 2 months following the surgery. The ability of the drug to alleviate the mechanical allodynia was assessed using a series of Von Frey hairs applied to the mid-plantar area of the ipsilateral hind paw before and after drug administration. The paw withdrawal threshold was determined using a standard up-down testing method (Dixon, 1980) and expressed relative to the paw withdrawal threshold in uninjured rats.
• Kim S H, Chung J M. An experimental model for peripheral neuropathy produced by segmental spinal nerve ligation in the rat, Pain 1992; 50 (3): 355-63. • Dixon W J. Efficient analysis of experimental observations. Annu Rev Pharmacol Toxicol 1980; 20: 441-62.

Row | Structure (SMILES) | reversed pain in the Chung model [%] | Percent pain reversal at time in min (dose 0.3 mg/kg, 15 min) [%] | Percent pain reversal at time in min (dose 0.3 mg/kg, 30 min) [%] | Percent pain reversal at time in min (dose 0.3 mg/kg, 60 min) [%] | Percent pain reversal at time in min (dose 1 mg/kg, 15 min) [%] | Percent pain reversal at time in min (dose 1 mg/kg, 30 min) [%] | Percent pain reversal at time in min (dose 1 mg/kg, 60 min) [%] | Percent pain reversal at time in min (dose 0.1 mg/kg, 15 min) [%] | Percent pain reversal at time in min (dose 0.1 mg/kg, 30 min) [%] | Percent pain reversal at time in min (dose 0.1 mg/kg, 60 min) [%]
1 | N[C@@H](C(=O)N1CCCC1)[C@@H](O)c1ccc(F)cc1 (racemic) [Compound 1, (±)-threo-2-Amino-3-(4-fluorophenyl)-3-hydroxy-1-(pyrrolidin-1-yl)propan-1-one hydrochloride] | 64 | 17 | 29 | 52 | 28 | 52 | 64 | – | – | –
2 | N[C@@H](C(=O)N1CCCC1)[C@@H](O)c1ccc(Cl)cc1 (racemic) [reference compound] | – | 4.8 | 7.5 | 8.6 | – | – | – | – | – | –
3 | N[C@@H](C(=O)N1CCCC1)[C@@H](O)c1ccc(F)cc1 [Compound 3, (−)-threo-2-Amino-3-(4-fluorophenyl)-3-hydroxy-1-(pyrrolidin-1-yl)propan-1-one hydrochloride] | 86 | 26.7 | 53.6 | 75.5 | 57.2 | 73.5 | 86.2 | 1.2 | 20.2 | 43.2
4 | N[C@@H](C(=O)N1CCCC1)[C@@H](O)c1ccc(I)cc1 (racemic) [reference compound] | – | 4.3 | 5.8 | 7.3 | – | – | – | – | – | –
